{"source": "patent US20240307335A1", "about": "“IRG Blockade to Armor CAR T Cells Against Myeloid Dysfunction” (ROSWELL PARK CANCER INSTITUTE CORPORATION, priority 2023, published 2024)", "type_in_all_cases": "cell-based, mouse", "key": {"[1]": {"system": "CAR T cells cocultured with Eμ-myc cells with or without macrophages (imMac)", "experiment": "Expansion assay of mCherry+ CAR T cells (IncuCyte live cell analysis) in cocultures", "details": "for CAR T cell expansion: CAR T cells cocultured with Eμ-myc cells without macrophages, agent present; for CAR T cell expansion / CAR T cell expansion in cocultures with imMac: over 48 h", "experimental": "Macrophage development and polarization: BMDMs were generated from bone marrow cells harvested from femurs and tibias of WT or iNOS^−/− mice. […] On day 3, 10 ml of fresh medium with 20 ng/ml M-CSF was added. On day 5, the culture medium was entirely discarded and replaced by 15 ml of fresh medium with 20 ng/ml M-CSF. On day 6, BMDMs were activated for 24 h with 20 ng/ml of IL-4 and IL-10 (Peprotech) to develop imMac or cultured in media only to use as unMac. M-CSF (20 ng/ml) was added during activation with cytokines. On day 7, adherent cells were harvested by gentle scraping and used for in vitro experiments.\nExpansion assay: The expansion of mCherry^+ CAR T cells was determined by an IncuCyte S3 live cell analysis system (Essen Bioscience). 2×10^4 Eμ-myc cells and 2×10^4 CAR T cells were cocultured in the absence or presence of 0.5×10^4 macrophages (CAR T:Eμ-myc cell:Macrophage=1:1:0.25, unless otherwise indicated in the figures) in a 96-well black-walled clear bottom plate in 120 μl of media. Cell images were captured at 4× magnification. The expansion index was calculated by dividing the total integrated red intensity (RCU×m^2/mm^2) at each time point by the first time point.\nImmunoregulatory actions of macrophages on CAR T cells: To explore how M2-like macrophages may impact the cellular function of CAR T cells, the study employed a syngeneic coculture system (FIG. 3A). […] The BMDMs were either unpolarized (unMac) or induced to differentiate into M2-like macrophages by culturing with type 2 cytokines IL-4 and IL-10. […] The study next explored the impact of imMac on CAR T cell effector function. To exclude the direct contribution of macrophage effector activities in these functional assays, CAR T cells, Eμ-myc cells, and macrophages were first cocultured for 48 hours (FIG. 3G). Next, CAR T cells isolated from the cocultures were evaluated for their effector function against fresh Eμ-myc cells."}, "Eμ-myc cells": {"system": "Eμ-myc cells", "experiment": "Luciferase-based killing assay with CAR T cells isolated from initial coculture", "details": "CAR T cells isolated after 48 h initial coculture with Eμ-myc cells with NCX-4016 (100 μM) or PNT (50 μM), no macrophages; lysis at 24 h", "experimental": "(§1) CAR T cell isolation from initial coculture for subsequent downstream assays: 1×10^6 CAR T cells and 1×10^6 Eμ-myc-GFP-FFL cells were cocultured in the absence or presence of 0.25×10^6 macrophages in a 6-well plate in 6 ml of media for 48 h. After initial coculture, cells were harvested, and T cells were isolated using Mouse T Cell Isolation Kit ([…] Technologies). […] Percentage of CAR-expressing T cells was determined with flow cytometry and were subsequently used for downstream assays.\nLuciferase-based killing assay: 2×10^4 Eμ-ALL-GFP-FFL cells were cocultured with CAR T cells at different effector-to-target ratios in a 96-well white-walled plate in 100 μl of media. Following incubation, 100 μl luciferase substrate reagent (ONE-Glo Luciferase assay system, Promega) was added to each well. Target cells alone were plated at the same cell density to determine maximum luciferase signals. Emitted luminescence was detected in the microplate reader (GloMax, Promega). Percent lysis was determined as (1−sample signal/maximum signal)×100."}, "[2]": {"system": "CAR T cells cocultured with fresh Eμ-myc cells", "experiment": "Cytokine secretion assay (Ella automated ELISA) with CAR T cells isolated from initial coculture", "details": "CAR T cells isolated after 48 h coculture with Eμ-myc cells with NCX-4016 (100 PM) or PNT (50 μM); supernatants at 24 h", "experimental": "as §1\nCytokine secretion assay: 2×10^4 Eμ-myc cells were cocultured with 2×10^4 CAR T cells in a 96-well plate in a total volume of 100 μl of media. Supernatants were collected and analyzed for IFN-γ and TNF-α secretion using Ella automated immunoassay system (Proteinsimple Bio-techne) according to manufacturer's instructions."}}, "data": [{"smiles": "C=C(CC(=O)OCCCCCCCC)C(=O)O", "note": "[4-OI, 4-octyl itaconate]", "values": [{"measurement": "CAR T cell expansion", "setting": "[1]", "value": "impaired CAR T cell expansion"}, {"measurement": "CAR T cell expansion", "setting": "[1]; listed as 4OI", "value": "reduced CAR T cell expansion"}, {"measurement": "CAR T cell expansion", "setting": "[1]; listed as 401", "value": "reduced CAR T cell expansion"}]}, {"smiles": "COC(=O)CCC(=O)C(=O)OC", "note": "[DMKG]", "values": [{"measurement": "rescue of CAR T cell expansion by supplementation", "setting": "[1]; FIG. 15, iNOS in imMac disrupts TCA cycle progression in CAR T cells", "value": "failed to rescue CAR T cell expansion"}]}, {"smiles": "CC(=O)Oc1ccccc1C(=O)Oc1cccc(CO[N+](=O)[O-])c1", "note": "[NCX-4016]", "values": [{"measurement": "CAR T cell expansion", "setting": "[1]", "value": "inhibition of CAR T cell expansion"}, {"measurement": "lysis of Eμ-myc cells by CAR T cells (ability to kill tumor cells)", "setting": "Eμ-myc cells", "value": "diminished ability of CAR T cells to kill tumor cells"}, {"measurement": "secretion of effector cytokine IFN-γ by CAR T cells", "setting": "[2]", "value": "diminished"}, {"measurement": "secretion of effector cytokine TNF-α by CAR T cells", "setting": "[2]", "value": "diminished"}]}, {"smiles": "O=NOO", "note": "[PNT, peroxynitrite]", "values": [{"measurement": "CAR T cell expansion", "setting": "[1]", "value": "inhibition of CAR T cell expansion"}, {"measurement": "lysis of Eμ-myc cells by CAR T cells (ability to kill tumor cells)", "setting": "Eμ-myc cells", "value": "diminished ability of CAR T cells to kill tumor cells"}, {"measurement": "secretion of effector cytokine IFN-γ by CAR T cells", "setting": "[2]", "value": "diminished"}, {"measurement": "secretion of effector cytokine TNF-α by CAR T cells", "setting": "[2]", "value": "diminished"}]}, {"smiles": "CC1(C)N([O])C(c2ccc(C(=O)O)cc2)=[N+]([O-])C1(C)C", "note": "[c-PTIO, carboxyl-PTIO]", "values": [{"measurement": "CAR T cell expansion in cocultures with imMac", "setting": "[1]; CAR T cells and Eμ-myc cells with imMac, agent present (L-NIL 50 μM; anti-IFN-γ 10 μg/mL; c-PTIO)", "value": "partially rescued the expansion of CAR T cells"}]}, {"smiles": "NC(=O)NCCC[C@H](N)C(=O)O", "note": "[citrulline]", "values": [{"measurement": "CAR T cell expansion", "setting": "[1]", "value": "did not impact the expansion of CAR T cells"}]}, {"smiles": "N=C(NO)NCC[C@H](N)C(=O)O", "note": "[nor-NOHA, N(omega)-hydroxy-nor-L-arginine]", "values": [{"measurement": "CAR T cell expansion in cocultures with imMac", "setting": "[1]; physiological arginine concentration (150 μM), nor-NOHA (50 PM)", "value": "failed to rescue CAR T cell expansion"}, {"measurement": "CAR T cell expansion in cocultures with imMac", "setting": "[1]; supraphysiological arginine concentration (1.15 mM) in culture media, nor-NOHA (50 PM)", "value": "did not restore CAR T cell expansion"}]}]}
